Reference: ChEMBL document CHEMBL1201862, “PubChem BioAssay data set” (2004)
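Tested at 5 concentrations; 48 h exposure; 96-well plates; endpoints linearly interpolated, else capped at highest concentration. At the GI50, growth is halved.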 Active and inactive are the calls of the source. Rule as the data show it: active = GI50 up to about 1.1 µM and inactive = higher.

What was measured:
Assay in all cases: growth of human tumour cells (NCI), 48 h
[1] = test system: HOP-92
[2] = test system: ACHN
[3] = test system: KM12
[4] = test system: SK-MEL-28
[5] = test system: RPMI-8226
[6] = test system: SR
[7] = test system: Hs-578T
[8] = test system: DU-145
[9] = test system: MDA-MB-435
[10] = test system: T47D
[11] = test system: SNB-19
[12] = test system: SK-OV-3
[13] = test system: OVCAR-8
[14] = test system: IGROV-1
[15] = test system: SF-539
[16] = test system: OVCAR-5
[17] = test system: 786-0
[18] = test system: OVCAR-4
[19] = test system: RXF 393
[20] = test system: CAKI-1

Measured: GI50

COc1cc2c3c(c1Oc1nnnn1-c1ccccc1)-c1c(ccc4c1OCO4)C[C@H]3N(C)CC2
inactive: [1] 24.4 µM | [2] 25.7 µM | [3] 32.1 µM | [4] 17.8 µM | [5] 32.5 µM | [6] 46.7 µM | [7] 28.4 µM | [8] 71 µM | [9] 20.2 µM | [10] 33.7 µM | [11] 65.5 µM | [12] 72.9 µM | [13] 47.8 µM | [14] 41.6 µM | [15] > 100 µM | [16] > 100 µM | [17] 17.5 µM

COc1cc(CC2c3cc(OC)c(OC)cc3CCN2C)c(Oc2cc3c(cc2OC)-c2c(O)c(OC)cc4c2C(C3)N(C)CC4)cc1OC (stereo not given)
inactive: [1] 14.5 µM | [2] 22.9 µM | [18] 28.3 µM | [3] 15 µM | [4] 20.3 µM | [6] 3.68 µM | [7] 18.2 µM | [8] 24.1 µM | [9] 24 µM | [10] 22.1 µM | [11] 25.3 µM | [12] 41.1 µM | [13] 20.8 µM | [14] 20 µM | [15] 14.1 µM | [19] 2.11 µM | [16] 45.8 µM | [17] 23.1 µM | [20] 23.7 µM

CN(C)c1ccc(/C=C2\N=C(NNc3ccccc3)NC2=O)cc1
inactive: [1] 17.3 µM | [2] 20.2 µM | [18] 24.2 µM | [3] 13.2 µM | [4] 29.1 µM | [5] 16 µM | [7] 35 µM | [8] 28.4 µM | [9] 21.5 µM | [10] 11.7 µM | [11] 35.6 µM | [12] 27.5 µM | [13] 30.9 µM | [14] 23.4 µM | [15] 19.5 µM | [19] 18.7 µM | [16] 31.8 µM | [17] 17.9 µM | [20] 26.2 µM

N[C@H](C(=O)O)[C@@H]1CC(Br)=NO1
inactive: [1] > 100 µM | [2] 73.5 µM | [18] > 100 µM | [3] 75.2 µM | [6] 44.1 µM | [7] > 100 µM | [8] > 100 µM | [9] 95.3 µM | [10] > 100 µM | [11] > 100 µM | [12] 69.5 µM | [13] 85.5 µM | [15] 97.7 µM | [19] > 100 µM | [16] 61.4 µM | [17] 99.8 µM | [20] 90.2 µM

COC1CC(OC2C(C)OC(OC3C(C)OC(OC4C(C)OC(O[C@H]5CC[C@@]6(C)C(=CC[C@]7(O)[C@@H]6C[C@@H](OC(C)=O)[C@@]6(C)[C@]7(O)CC[C@@]6(O)C(C)=O)C5)CC4OC)CC3OC)CC2OC)OC(C)C1O (stereo not given in full)
inactive: [1] > 25 µM | [2] > 25 µM | [18] > 25 µM | [3] > 25 µM | [5] > 25 µM | [6] > 25 µM | [7] > 25 µM | [8] > 25 µM | [9] > 25 µM | [10] > 25 µM | [11] > 25 µM | [12] > 25 µM | [13] > 25 µM | [14] > 25 µM | [15] > 25 µM | [16] > 25 µM | [17] > 25 µM | [20] > 25 µM
